What was measured:
[1] = test system: acute DSS colitis in NFD/FDD fed mice; assay: Acute DSS colitis in mice fed fiber-deficient (no fiber) diet; assay type: in vivo, mouse; conditions: five days DSS colitis
[2] = test system: acute DSS colitis in NFD/FDD fed mice; assay: as above; assay type: in vivo, mouse
Experimental: (§1) Mice and diets C57BL/6J and Il10^−/− mice were purchased from Jackson Laboratory. Animals were purchased from maximum barrier rooms and maintained in high barrier animal rooms at Columbia University. All mice were maintained under specific-pathogen-free (SPF) conditions for the duration of the experiments. All experiments were performed under IACUC approved guidelines. To control for microbiota and cage effects, mice were shuffled between cages before the start of each experiment and randomly assigned to each group. All experiments were performed with gender and age (8-12 weeks at start of experiment) matched mice. Animals were maintained on normal diet (PicoLab Rodent Diet 20, 5053) until start of experiments and then switched to fiber-deficient diet (Teklad Custom Diet, TD.00278) or continued on ND as indicated. ND contained 21% protein, 53.4% carbohydrates, 5% fat, 5% fiber and 4 kcal/g. FDD contained 19.3% protein, 64.8% carbohydrates, 5.1% fat and no fiber, overall the diet provides 3.9 kcal/g.
(§2) DSS colitis and GLP-1 modulating therapies For induction of acute DSS colitis, between 0.5% to 6% w/v dextran sulfate sodium (DSS, colitis grade, MPbio) was supplemented in drinking water for five days. Drinking water was furthermore enriched with 2% w/v sucrose for all groups. Mice were switched to FDD seven days prior to DSS supplementation or maintained on ND during course of experiment. As indicated, FDD mice were i.p. injected with 0.1 μg/g GLP-1 receptor agonist (Exendin-4, AS-24463, AnaSpec) or 0.4 μg/g GLP-1 receptor antagonist (Exendin-9-39, AS-24467, AnaSpec) in 100 μl PBS every day starting one day before start of DSS. Additionally, mice were orally gavaged with either 10^10 CFU E. coli Nissle (EcN) or 10^10 CFU E. coli Nissle-HldSE (EcN-HldSE) every day starting one day prior to DSS supplementation. Of note, tissue samples for RNA-sequencing analysis are derived from mice either gavaged with EcN (control and GLP-1 receptor agonist groups) or EcN-HldSE (EcN-HldSE and GLP-1 receptor antagonist groups). Mice were monitored daily for changes in body weight. After five days, mice were euthanized for blood and tissue sampling.
Histological analyses The colonic tissue was carefully rinsed with PBS to remove fecal matter. Colon and small intestine was fixated in 10% formalin for >24 hours and embedded in paraffin. 5 μm section were stained with H&E, Alcian Blue and Immunohistochemistry (IHC) staining for GLP-1 (GLP-1 polyclonal antibody, PA5-79303, Invitrogen). A pathologist assessed and scored H&E stained slides for colitis grading.
Plating for liver colony forming units (CFU) For bacterial extraction from liver tissue, livers were first weighed and then transferred into sterile stainless steel microvials (Biospec #2007) containing two stainless steel beads (6.35 mm, Biospec #11079635SS) and capped with silicone rubber caps (Biospec #2008). The vials were subsequently filled with 500 μL of sterile phosphate-buffered saline (PBS), and the tubes were placed on ice to prevent bacterial growth. The samples were homogenized using a Mini-BeadBeater-16 (BioSpec) with three cycles of 30 seconds at 4° C. After extraction, the samples were diluted as needed in PBS, and 100 μL of the diluted solution was plated onto Luria-Bertani (LB) agar plates (2% agar). The plates were thoroughly dried and incubated at 37° C. overnight. Colony-forming units (CFU) were counted the following day and normalized to tissue weight.
Plasma analyses GLP-1 and pro-inflammatory cytokine measurements were performed from plasma samples. After euthanasians, blood was drawn from mice with needles coated with EDTA to stop coagulation. Blood samples were pelleted by centrifugation for 10 min at 15000 rpm at 4° C. Supernatant was transferred to a new tube, snap frozen and stored at −80° C. GLP-1 ELISA (GLP-1 Multispecies ELISA kit, BMS2194, Invitrogen) and LEGENDplex Mouse Inflammation Panel (740446, BioLegend) were performed according to manufacturer protocol. […]

[3] = test system: colon tissue gene expression; assay: RNA-sequencing of colon tissue of FDD mice during DSS colitis; assay type: in vivo, mouse
Experimental: as §2
RNA colonic transcriptomics For mRNA sequencing using the Illumina platform, total RNA was first extracted from tissue using TRItol reagent. The extracted RNA was quantified using Bioanalyzer to ensure high-quality RNA (RIN>7) for further library preparation. Poly-A mRNA was isolated using the Dynabeads™ mRNA Purification Kit (Thermo Fisher, #61006), followed by fragmentation with the NEBNext Ultra II RNA Library Prep Kit (New England Biolabs, #E7770) at 94° C. for 8 minutes. First-strand cDNA synthesis was performed using SuperScript IV Reverse Transcriptase (Thermo Fisher, #18090050), followed by second-strand cDNA synthesis. […] Libraries were validated for quality and size distribution using 2% agarose gel and enriched using size selection beads to eliminate any cDNA below 350 bp, and quantified using a Qubit 4 Fluorometer (Thermo Fisher, #Q33226). Sequencing was performed on an Illumina NextSeq550 platform using paired-end 150 bp reads high output.
Post-sequencing, FastQC (v0.11.9) was employed to assess raw read quality, evaluating metrics such as per-base sequence quality (Q30 or higher), GC content, and potential adapter contamination. […] Reads alignment and transcripts quantification of gene expression were done using Kallisto (v0.46.1) and DESeq2 (v1.30.1) was then used for differential expression analysis, incorporating normalization and variance-stabilizing transformation to account for differences in sequencing depth and library size. […]

[4] = test system: acute DSS colitis in NC/ND fed mice; assay: Acute DSS colitis in mice fed normal chow / normal diet; assay type: in vivo, mouse; conditions: five days DSS colitis
Experimental: as §1, §2
Plating for liver colony forming units (CFU) For bacterial extraction from liver tissue, livers were first weighed and then transferred into sterile stainless steel microvials (Biospec #2007) containing two stainless steel beads (6.35 mm, Biospec #11079635SS) and capped with silicone rubber caps (Biospec #2008). […] Colony-forming units (CFU) were counted the following day and normalized to tissue weight.
Here, mice with low fiber diets were treated with DSS for […] with or without the engineered Nissle HldSE (FIG. 3A) Treatment with Nissle HldSE improved barrier function measured based on infiltrating gut bacteria in liver (Liver CFU; FIG. 3C). […]

IEL γδ (gd) T cells = assay: IEL γδ T cell IL-17A production and γδ T cell depletion in DSS colitis of NFD fed mice; assay type: in vivo, mouse
Excerpt: EcN or EcN HldSE (5×10^9 CFU/mouse) was gavaged daily starting three days prior to DSS administration. gd T cells were depleted by administration of neutralizing antibodies i.p. every other day. […] EcN or EcN HldSE (5×10^9 CFU/mouse) was gavaged daily starting three days prior to DSS administration. gd T cells were depleted by administration of neutralizing antibodies i.p. every other day. N=3-5 mice/group, one experiment. […] EcN or EcN HldSE (5×10^9 CFU/mouse) was gavaged daily starting three days prior to DSS administration. gd T cells were depleted by administration of neutralizing antibodies i.p. every other day. N=3-5 mice/group, one experiment.

GLP-1 release = conditions: cited from earlier work
[5] = FDD mice, five days DSS colitis, agonist 0.1 μg/g i.p. daily or 10^10 CFU gavage daily
[6] = FDD mice, DSS colitis, EcN-HldSE treatment plus antagonist injection

Exendin-4 [GLP-1 receptor agonist]
CFU levels in the liver (bacteria dissemination into the liver) [1]: significantly reduced | L-cell numbers (GLP-1 staining) in colon ([2]; FDD mice during DSS colitis): increase | goblet cell numbers (Alcian Blue staining) in colon ([2]; FDD mice during DSS colitis): remained unchanged | histological colitis score ([2]; FDD mice, DSS colitis): improved | colitis outcome in dysbiotic mice ([2]; FDD mice, DSS colitis, figure headlines FIGS. 10, 11): ameliorate | circulating (pro-)inflammatory cytokines (TNF-α, IL-1α, IL-6, MCP-1) ([2]; FDD mice, five days DSS colitis, plasma): lower | colon shortening [2, 5]: less | weight loss [2, 5]: reduced | genes linked to ribosome biogenesis, cell cycle and DNA replication and inflammatory signaling ([3]; colon of FDD mice during colitis): downregulated | DEGs commonly upregulated in the colon with EcN-HldSE and the GLP-1 receptor agonist ([3]; colon of FDD mice, DSS colitis, versus EcN control): ~50% | genes associated with homeostasis and recovery phases (GSEA) ([3]; colon of FDD mice, acute colitis, DSS colitis time-series dataset): enrichment | genes involved in lipid metabolism, tight junctions and epithelial structure maintenance ([3]; over-representation analysis, colon of FDD mice during DSS colitis): upregulation

Exendin-9-39 [GLP-1 receptor antagonist]
protective effects of the engineered probiotic ([2]; FDD mice, DSS colitis, EcN-HldSE treatment plus antagonist 0.4 μg/g i.p. daily): abolished | colon length [2, 6]: shorter | level of circulating pro-inflammatory cytokines [2, 6]: elevated | number of bacteria in the liver [2, 6]: drastically increased | weight loss [2, 6]: severe | bacterial dissemination into the liver [4]: higher | colon shortening [4]: greater | disease severity [4]: exacerbated | weight loss [4]: more

MAADIISTIGDLVKWIIDTVNKFKK [HldSE]
IL-17A production by γδ T cells (IEL γδ (gd) T cells; IEL γδ T cells after 6 days of DSS treatment of NFD fed mice): upregulation | efficacy of the peptide after depletion of γδ T cells (IEL γδ (gd) T cells; experimental depletion of γδ T cells, NFD fed mice, DSS): notable, albeit not exhaustive, diminishment | GLP-1 release in vitro (GLP-1 release): induce
